Results: EP1801112A1, “Bicyclic pyrimidines and bicyclic 3,4-dihydropyrimidines as inhibitors of cellular proliferation” (Warner-Lambert Company LLC, priority 1998, dated 1999)
Where two headings read alike, the source gives them in different places. One block for each compound: values may come before it.

What was measured:
[1] = tested on: human umbilical vein endothelial cells; assay: Human Umbilical Vein Endothelial Cell (HUVEC) Proliferation Assay; format: cell-based; settings: 96 h, four days incubation, Sulphorhodamine B staining
Description: The compounds of Formula I are useful for treating cell proliferative disorders concerning angiogenesis and have been evaluated in a human umbilical vein endothelial cell in vitro assay. The assay described below is used to determine the anti-proliferative effects of the invention compounds on human umbilical vein endothelial cells, and the results are shown in Table 7.
Human Umbilical Vein Endothelial Cell (HUVEC) Proliferation Assay
Ninety-six well tissue culture plates are seeded with 100 µL of cells in all wells of rows A->G with row H remaining empty as a blank. HUVEC (Clonetics, San Diego, CA) are grown in endothelial growth medium (EGM media, Clonetics), containing 2% fetal bovine serum. The cell seed density for HUVEC cells is 20,000 per mL. C6 cells (ATCC Cat. No. CCL-107) are seeded at 6000 per mL in F10 medium (nutrient mixture Hemes) supplemented with 15% horse serum, 2.5% fetal bovine serum, and 6.0 mL 200 mM Glutamine per 600 mL medium. A90 cells (Suny, Buffalo, NY) are also seeded at 6000 per mL, but they are grown in RPMI 1640 (Roswell Park Memorial Institute) plus 10% fetal bovine serum. Unless noted otherwise, tissue culture media and components are from GIBCO. The cells are allowed to incubate at 37°C, 5% CO2, and 100% relative humidity for 16-24 hours.
Invention compounds are prepared by dissolving them in DMSO at a concentration of 5 mM, followed by dilution to 50 µM in EGM media. One hundred microliters of the compounds are applied to duplicate wells in column 1 of the previously prepared cell plates. Column 1 row H receives 100 µL of EGM media. The compounds in column 1 are diluted across the plates using serial twofold dilutions.
The plates are incubated as above for an additional four days before being stained with Sulphorhodamine B. Staining is performed as follows: The media is removed from the plates, and the cells are fixed using 10% trichloroacetic acid for 30 minutes at 4°C. Following fixation, the plates are washed five times with distilled water after which 100 µL of Sulphorhodamine B is added to each well. Sulphorhodamine B is dissolved in 1% acetic acid to a concentration of .075%. Following staining, excess stain is removed from the wells, and the plates are washed four times with 1% acetic acid. The plates are allowed to air dry before the bound dye is solubilized in 100 µL of 10 mM unbuffered TRIS base. Absorbance is measured on a 96 well plate reader at […] using a reference filter wavelength of 630 nm. […] Sulphorhodamine B and TRIS are from Sigma Chemical Company. Acetic acid and trichloroacetic acid are from Mallinckrodt AR.

cdk2/cyclinA = cdk2/cyclinA (Homo sapiens, UniProt P24941); assay: Cyclin-Dependent Kinase Assay cdk2/cyclinA; format: biochemical
Description: (§1) Cyclin-Dependent Kinase Assays (cdk2/cyclinE, cdk2/cyclinA, cdc2/cyclinB)
(§2) All components except the ATP were added to the wells, and the plate was placed on a plate mixer for 2 minutes. The reaction was begun by addition of [^32P]ATP, and the plate was incubated at 25°C for 15 minutes. The reaction was terminated by addition of 0.1 mL of 20% TCA. The plate was kept at 4°C for at least 1 hour to allow the substrate to precipitate. The wells were then washed five times with 0.2 mL of 10% TCA and ^32P incorporation determined with a beta plate counter (Wallac Inc., Gaithersburg, MD).

cdk4/D = cdk4/D (Homo sapiens, UniProt P11802); assay: Cyclin-Dependent Kinase 4 (cdk4) Assay; format: biochemical
Sequence of cdk4/D (P11802 whole entry): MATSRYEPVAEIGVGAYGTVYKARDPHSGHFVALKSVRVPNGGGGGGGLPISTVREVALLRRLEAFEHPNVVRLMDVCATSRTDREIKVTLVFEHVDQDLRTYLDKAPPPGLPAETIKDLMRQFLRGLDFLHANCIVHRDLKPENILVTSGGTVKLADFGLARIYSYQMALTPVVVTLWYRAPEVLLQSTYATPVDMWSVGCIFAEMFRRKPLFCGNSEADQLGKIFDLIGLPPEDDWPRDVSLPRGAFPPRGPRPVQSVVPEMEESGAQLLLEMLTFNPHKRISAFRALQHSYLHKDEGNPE
Sequence of cdk4/D (P24385 whole entry, further chain): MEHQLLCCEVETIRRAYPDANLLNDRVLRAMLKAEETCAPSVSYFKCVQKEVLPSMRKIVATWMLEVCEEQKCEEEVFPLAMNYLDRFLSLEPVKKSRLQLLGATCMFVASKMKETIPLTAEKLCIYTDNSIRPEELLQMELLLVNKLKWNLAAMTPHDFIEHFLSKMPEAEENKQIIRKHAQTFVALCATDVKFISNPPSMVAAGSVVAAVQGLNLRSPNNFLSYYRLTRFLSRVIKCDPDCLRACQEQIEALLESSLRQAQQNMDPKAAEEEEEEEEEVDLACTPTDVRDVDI
Description: A typical assay, for instance, measures inhibitory activity against the cyclin D dependent kinase 4 enzyme (cdk4/D). […] The cdk4 assay was carried out as follows.
Cyclin-Dependent Kinase 4 (cdk4) Assay
Enzyme assays for IC50 determinations (Tables 1 and 2) and kinetic evaluation were performed in 96 well filter plates (Millipore MADVN6550). The total volume was 0.1 mL containing a final concentration of 20 mM TRIS (tris[hydroxymethyl]aminomethane), at pH 7.4, 50 mM NaCl, 1 mM dithiothreitol, 10 mM MgCl2, 25 µM ATP containing 0.25 µCi of [^32P]ATP, 20 ng of cdk4, 1 µg of retinoblastoma, and appropriate dilutions of a compound of the present invention. All components except the ATP were added to the wells, and the plate was placed on a plate mixer for 2 minutes. The reaction was started by adding [^32P]ATP and the plate was incubated at 25°C for 15 minutes. The reaction was terminated by addition of 0.1 mL of 20% trichloroacetic acid (TCA). The plate was kept at 4°C for at least 1 hour to allow the substrate to precipitate. The wells were then washed five times with 0.2 mL of 10% TCA and ^32P incorporation was determined with a beta plate counter (Wallac Inc., Gaithersburg, MD).

cdc2/cyclinB = cdc2/cyclinB (Homo sapiens, UniProt P06493); assay: Cyclin-Dependent Kinase Assay cdc2/cyclinB; format: biochemical
Sequence of cdc2/cyclinB (P06493 whole entry): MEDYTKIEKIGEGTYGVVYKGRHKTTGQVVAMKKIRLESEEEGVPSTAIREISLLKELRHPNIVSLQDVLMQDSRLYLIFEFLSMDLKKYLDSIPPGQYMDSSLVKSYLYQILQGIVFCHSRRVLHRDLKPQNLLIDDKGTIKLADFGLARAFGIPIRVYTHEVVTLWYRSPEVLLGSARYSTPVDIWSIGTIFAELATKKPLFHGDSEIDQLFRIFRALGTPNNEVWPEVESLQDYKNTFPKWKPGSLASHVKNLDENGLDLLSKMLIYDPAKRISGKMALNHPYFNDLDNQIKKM
Sequence of cdc2/cyclinB (P14635 whole entry, further chain): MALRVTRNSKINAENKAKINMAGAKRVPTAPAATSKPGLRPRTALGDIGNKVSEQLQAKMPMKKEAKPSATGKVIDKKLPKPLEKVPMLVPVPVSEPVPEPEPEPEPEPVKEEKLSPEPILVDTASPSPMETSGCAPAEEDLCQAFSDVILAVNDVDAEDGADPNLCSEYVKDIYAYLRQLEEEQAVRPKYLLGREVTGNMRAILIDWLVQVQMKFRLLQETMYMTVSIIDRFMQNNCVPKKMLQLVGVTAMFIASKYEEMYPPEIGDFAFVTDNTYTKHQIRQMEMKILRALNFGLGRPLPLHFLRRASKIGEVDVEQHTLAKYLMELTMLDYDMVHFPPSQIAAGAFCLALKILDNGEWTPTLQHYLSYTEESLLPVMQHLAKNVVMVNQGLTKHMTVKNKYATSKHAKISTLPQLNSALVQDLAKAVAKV
Description: as §1, §2

cdk2/cyclinE = cdk2/cyclinE (Homo sapiens, UniProt P24941); assay: Cyclin-Dependent Kinase Assay cdk2/cyclinE; format: biochemical
Description: as §1, §2

c-Src = biological target: T1, c-Src (Homo sapiens, UniProt P12931); assay: c-Src protein kinase assay; format: biochemical; settings: poly GluTyr substrate, 5 µM ATP
T1 construct: made in house; host or cells: baculovirus infected insect cells
T1 sequence (P12931 whole entry): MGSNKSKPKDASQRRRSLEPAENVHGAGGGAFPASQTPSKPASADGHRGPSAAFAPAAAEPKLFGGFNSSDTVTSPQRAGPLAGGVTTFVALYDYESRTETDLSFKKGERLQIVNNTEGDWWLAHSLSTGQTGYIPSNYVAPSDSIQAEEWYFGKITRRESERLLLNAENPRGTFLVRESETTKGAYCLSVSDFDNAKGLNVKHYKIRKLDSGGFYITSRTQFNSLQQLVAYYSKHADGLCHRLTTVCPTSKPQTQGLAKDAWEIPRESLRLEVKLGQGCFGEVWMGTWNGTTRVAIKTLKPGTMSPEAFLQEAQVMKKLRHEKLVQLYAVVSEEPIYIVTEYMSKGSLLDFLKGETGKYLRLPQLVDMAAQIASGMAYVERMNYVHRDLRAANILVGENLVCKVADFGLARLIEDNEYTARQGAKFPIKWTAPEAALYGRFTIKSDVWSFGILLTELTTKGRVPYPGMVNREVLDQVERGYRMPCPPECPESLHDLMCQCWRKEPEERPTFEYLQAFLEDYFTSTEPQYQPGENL
Description: The assay was carried out as follows: c-Src kinase was purified from baculovirus infected insect cell lysates using an antipeptide monoclonal antibody directed against the N-terminal amino acids (amino acids 2-17) of c-Src. The antibody, covalently linked to 0.65 µm latex beads, was added to a suspension of insect cell lysis buffer comprised of 150 mM NaCl, 50 mM Tris pH 7.5, 1 mM DTT, 1% NP-40, 2 mM EGTA, 1 mM sodium vanadate, 1 mM PMSF, 1 µg/mL each of leupeptin, pepstatin, and aprotinin. Insect cell lysate containing c-Src protein was incubated with these beads for 3 to 4 hours at 4°C with rotation. At the end of the lysate incubation, the beads were rinsed three times in lysis buffer, resuspended in lysis buffer containing 10% glycerol, and frozen. These latex beads were thawed, rinsed three times in assay buffer (40 mM Tris, pH 7.5, […]) and suspended in the same buffer. In a Millipore 96-well plate with a 0.65 µm polyvinylidine membrane bottom were added the reaction components: 10 µL c-Src beads, 10 µL of 2.5 mg/mL poly GluTyr substrate, 5 µM ATP containing 0.2 µCi labeled ^32P-ATP, 5 µL DMSO containing inhibitors or as a solvent control, and buffer to make the final volume 125 µL. The reaction was started at room temperature by addition of the ATP and quenched 10 minutes later by the addition of 125 µL of 30% TCA, 0.1 M sodium pyrophosphate for 5 minutes on ice. […] The filters were then punched, counted in a liquid scintillation counter, and the data examined for inhibitory activity in comparison to a known inhibitor such as erbstatin. […]

[2] = biological target: T2, FGF-1 (flg) receptor tyrosine kinase (Homo sapiens, UniProt P11362); assay: FGF Receptor Tyrosine Kinase Assay; format: biochemical; settings: glutamate-tyrosine co-polymer substrate, 50 µM ATP
T2 construct: amplify a fragment of DNA that codes for the intracellular tyrosine kinase domain; made in house; host or cells: SF9 insect cells (baculovirus); crude cell lysate used
T2 sequence (P11362 478-767 limits assumed): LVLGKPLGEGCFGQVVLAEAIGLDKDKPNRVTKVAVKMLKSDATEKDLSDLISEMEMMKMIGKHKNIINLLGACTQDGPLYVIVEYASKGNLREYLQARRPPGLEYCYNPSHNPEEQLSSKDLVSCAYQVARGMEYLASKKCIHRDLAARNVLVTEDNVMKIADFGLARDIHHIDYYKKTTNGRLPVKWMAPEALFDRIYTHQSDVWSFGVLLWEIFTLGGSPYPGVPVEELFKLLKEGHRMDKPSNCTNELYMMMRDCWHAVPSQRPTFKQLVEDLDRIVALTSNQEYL
Description: PDGF and FGF Receptor Tyrosine Kinase Assays
PCR primers were designed to amplify a fragment of DNA that codes for the intracellular tyrosine kinase domain. The fragment was inserted into a baculovirus vector, cotransfected with AcMNPV DNA, and the recombinant virus isolated. SF9 insect cells were infected with the virus to overexpress the protein, and the cell lysate was used for the assay. Assays were performed in 96-well plates (100 µL/incubation/well), and conditions were optimized to measure the incorporation of ^32P from γ^32P-ATP into a glutamate-tyrosine co-polymer substrate. Briefly, to each well was added 82.5 µL of incubation buffer containing 25 mM Hepes (pH 7.0), 150 mM NaCl, 0.1% Triton X-100, 0.2 mM PMSF, 0.2 mM Na3VO4, 10 mM MnCl2, and 750 µg/mL of Poly (4:1) glutamate-tyrosine followed by 2.5 µL of inhibitor and 5 µL of enzyme lysate (7.5 µg/µL FGF-TK or 6.0 µg/µL PDGF-TK) to initiate the reaction. […] The reaction was terminated by the addition of 100 µL of 30% trichloroacetic acid (TCA) containing 20 mM sodium pyrophosphate and precipitation of material onto glass fiber mats (Wallac). […] Nonspecific activity was defined as radioactivity retained on the filters following incubation of samples with buffer alone (no enzyme). Specific enzymatic activity (enzyme plus buffer) was defined as total activity minus nonspecific activity. […]

[3] = 25 µM ATP, retinoblastoma substrate, read-out: IC50 (µM) cdk4/D

SMILES: CCN1C(=O)N(c2cc(OC)cc(OC)c2)Cc2cnc(NCCCN3CCN(C)CC3)nc21 [Example 57, 3-(3,5-Dimethoxy-phenyl)-1-ethyl-7-[3-(4-methyl-piperazin-1-yl)-propylamino]-3,4-dihydro-pyrimido[4,5-d]pyrimidin-2(1H)-one]
- IC50 [1]: 152 nM

- IC50 (cdk2/cyclinA; retinoblastoma substrate, read-out: IC50 (µM) cdk2/A): 0.6 µM
- IC50 (cdk4/D; [3]): 0.7 µM
- IC50 (cdc2/cyclinB; retinoblastoma substrate, read-out: IC50 (µM) cdkl/B): 16.8 µM
- IC50 (cdk2/cyclinE; retinoblastoma substrate, read-out: IC50 (µM) cdk2/E): 2.2 µM
- IC50 (c-Src): 2400 nM
- IC50 [2]: 0.05 to 0.5 µM
SMILES: O=C1NCc2cnc(Nc3ccc(N4CCC(O)CC4)cc3)nc2N1C1CCCC1 [Example 15, 1-Cyclopentyl-7-[4-(4-hydroxypiperidin-1-yl)phenylamino]-3,4-dihydropyrimido[4,5-d]pyrimidin-2(1H)-one]

SMILES: COc1cc(OC)cc(N2Cc3cnc(NCCCCCN4CCN(C)CC4)nc3NC2=O)c1 [Example 54c, 3-(3,5-Dimethoxy-phenyl)-7-[5-(4-methyl-piperazin-1-yl)-pentylamino]-3,4-dihydro-pyrimido[4,5-d]pyrimidin-2(1H)-one]
- IC50 [1]: 5780 nM

SMILES: CC(C)N1C(=O)NCc2cnc(Nc3ccc(N4CCN(C)CC4)cc3)nc21 [Example 22, 1-Isopropyl-7-[4-(4-methylpiperazin-1-yl)phenylamino]-3,4-dihydropyrimido[4,5-d]pyrimidin-2(1H)-one]
- IC50 (cdk2/cyclinA): 9.31 µM
- IC50 (cdk4/D): 0.34 µM
- IC50 (c-Src): 1510 nM

SMILES: CCN1C(=O)N(c2cc(OC)cc(OC)c2)Cc2cnc(NCCCCCN3CCN(C)CC3)nc21 [Example 59, 3-(3,5-Dimethoxy-phenyl)-1-ethyl-7-[5-(4-methyl-piperazin-1-yl)-pentylamino]-3,4-dihydro-pyrimido[4,5-d]pyrimidin-2(1H)-one]
- IC50 [1]: 112 nM

SMILES: CCN(CC)CCCNc1ncc2c(n1)NC(=O)N(c1cc(OC)cc(OC)c1)C2 [Example 55, 7-(3-Diethylamino-propylamino)-3-(3,5-dimethoxy-phenyl)-3,4-dihydropyrimido[4,5-d]pyrimidin-2(1H)-one]
- IC50 [1]: > 25000 nM

SMILES: CC(C)n1c(=O)ncc2cnc(Nc3ccc(N4CCN(C)CC4)cc3)nc21 [Example 40, 1-Isopropyl-7-[4-(4-methylpiperazin-1-yl)phenylamino]pyrimido[4,5-d]pyrimidin-2(1H)-one]
- IC50 (cdk2/cyclinA): 4.51 µM
- IC50 (cdk2/cyclinE): 16.5 µM
- IC50 (c-Src): 4300 nM
- IC50 [2]: 1.13 µM

SMILES: CCN1C(=O)N(c2cc(OC)cc(OC)c2)Cc2cnc(NCCNCc3ccncc3)nc21 [Example 56, 3-(3,5-Dimethoxy-phenyl)-1-ethyl-7-{2-[(pyridin-4-ylmethyl)-amino]-ethylamino}-3,4-dihydro-pyrimido[4,5-d]pyrimidin-2(1H)-one]
- IC50 [1]: 1930 nM

SMILES: CCN(CC)CCCNc1ncc2c(n1)N(CC)C(=O)N(c1cc(OC)cc(OC)c1)C2 [Example 60, 7-(3-Diethylamino-propylamino)-3-(3,5-dimethoxy-phenyl)-1-ethyl-3,4-dihydro-pyrimido[4,5-d]pyrimidin-2(1H)-one]
- IC50 [1]: 943 nM

SMILES: COc1cc(OC)cc(N2Cc3cnc(NCCCN4CCN(C)CC4)nc3NC2=O)c1 [Example 54a, 3-(3,5-Dimethoxy-phenyl)-7-[3-(4-methyl-piperazin-1-yl)-propylamino]-3,4-dihydro-1H-pyrimido[4,5-d]pyrimidin-2(1H)-one]
- IC50 [1]: 5990 nM

SMILES: CCN1C(=O)N(c2cc(OC)cc(OC)c2)Cc2cnc(NCCCCN3CCN(C)CC3)nc21 [Example 58, 3-(3,5-Dimethoxy-phenyl)-1-ethyl-7-[4-(4-methyl-piperazin-1-yl)-butylamino]-3,4-dihydro-pyrimido[4,5-d]pyrimidin-2(1H)-one]
- IC50 [1]: 134 nM

SMILES: O=C1NCc2cnc(Nc3ccc(N4CCCCC4CO)cc3)nc2N1C1CCCC1 (stereo not shown) [Example 19, 1-Cyclopentyl-7-[4-(2-hydroxymethylpiperidin-1-yl)phenylamino]-3,4-dihydro-pyrimido[4,5-d]pyrimidin-2(1H)-one]
- IC50 (cdk4/D): 0.5 µM
- IC50 (c-Src): 4420 nM
- IC50 [2]: 0.05 to 0.5 µM

- IC50 (cdk4/D; [3]): 1.55 µM
- IC50 (c-Src): > 50000 nM
- IC50 [2]: 0.64 µM
SMILES: O=C1NCc2cnc(Nc3ccc(N4CCCCC4)cc3)nc2N1C1CCCC1 [Example 10, 1-Cyclopentyl-7-[4-(piperidin-1-yl)phenylamino]-3,4-dihydropyrimido[4,5-d]pyrimidin-2(1H)-one]

SMILES: O=C1NCc2cnc(Nc3ccc(-n4cccc4)cc3)nc2N1C1CCCC1 [Example 14, 1-Cyclopentyl-7-[4-(pyrrol-1-yl)phenylamino]-3,4-dihydropyrimido[4,5-d]pyrimidin-2(1H)-one]
- IC50 (cdk2/cyclinA): 5.1 µM
- IC50 (cdk4/D): 17.8 µM
- IC50 (cdc2/cyclinB): > 20 µM
- IC50 (c-Src): > 50000 nM
